Laboratory results as given in patent US9072919B2, “Synergistic antioxidant cosmetic compositions containing at least one of baicalin and taxifolin, at least one of caffeine and nicotinamide, at least one of vitamin C and resveratrol and ferulic acid” (priority 2012, dated 2015).

Assays:
Solubility in water = type: physicochemical
[1] = Oxygen radical absorbance capacity assay (ORAC); type: biochemical; conditions: tested both individually and in solution
Procedure: Azo-initiators are considered to produce the peroxyl radical by heating, which damages the fluorescent molecule, resulting in the loss of fluorescence. Antioxidants are considered to protect the fluorescent molecule from the oxidative degeneration. By quantifying the decay of fluorescence using a fluorometer, the degree of protection is determined comparing with a standard control antioxidant Trolox. […] Equipment that can automatically measure and calculate the capacity is commercially available, such as the VarioSkan flash microplate reader from Thermo Scientific. To test samples by using ORAC, compounds are dissolved into water-based NaH2PO4 buffer.

Compound	solubility in water (Solubility in water)	influence of hydrotrope on the capacity of antioxidant compounds [1]
O=C(O)[C@H]1O[C@@H](Oc2cc3oc(-c4ccccc4)cc(=O)c3c(O)c2O)[C@H](O)[C@@H](O)[C@@H]1O [baicalin]	very low	–
Cn1c(=O)c2c(ncn2C)n(C)c1=O [caffeine]	–	no influence
NC(=O)c1cccnc1 [nicotinamide]	–	no influence
